Laboratory results taken from patent US5462926A (Biomeasure, Inc., priority 1993, dated 1995).
Like-named read-outs stand apart in the source and are kept apart here. Where a SMILES comes first, the peptide text is derived from it. Bridges are numbered along the chain shown (N, C = ends). [ ]: non-standard residue; d: D form. 2Nal = N[C@@H](Cc1ccc2ccccc2c1)C(=O)O; d2Nal = N[C@H](Cc1ccc2ccccc2c1)C(=O)O

Key:
[1] = molecular target: T1, mu opioid receptors (Rattus norvegicus, UniProt P33535); test: Mu opioid membrane assay, [3H]DAGO, rat forebrain membranes; assay type: binding
T1 construct: rat forebrain (TRH, mu and delta opioid membrane assays); from tissue; host or cells: rat forebrain membranes
T1 sequence (P33535 whole entry): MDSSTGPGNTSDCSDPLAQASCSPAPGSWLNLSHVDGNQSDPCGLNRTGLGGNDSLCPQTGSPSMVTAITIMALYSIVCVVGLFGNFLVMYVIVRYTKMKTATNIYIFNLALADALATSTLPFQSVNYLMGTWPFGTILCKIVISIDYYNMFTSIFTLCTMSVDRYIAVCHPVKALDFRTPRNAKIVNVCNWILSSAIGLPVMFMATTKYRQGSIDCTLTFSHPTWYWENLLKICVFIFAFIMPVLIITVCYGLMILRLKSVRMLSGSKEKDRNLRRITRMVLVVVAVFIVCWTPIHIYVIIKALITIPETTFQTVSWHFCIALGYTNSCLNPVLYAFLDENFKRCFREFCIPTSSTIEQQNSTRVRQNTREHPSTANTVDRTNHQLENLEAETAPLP

[2] = tested on: GRP receptors on rat pancreatic acini; test: Binding of 125I-[Tyr4]bombesin to pancreatic acini; details: NMB-R transfected cells vs GRP-R on rat pancreatic acini
Text: Nonsaturable binding was<10% of total binding in all experiments.

[3] = molecular target: GRP receptor (Rattus norvegicus, UniProt P52500); test: GRP membrane receptor assay, 125I-[Tyr4]Bn, AR 42J cell membranes; assay type: binding; design: endogenous in cells; host or cells: rat AR 42J pancreatic acinar tumor cell membranes; details: read-out: affinity, 125I-[Tyr4]Bn, AR 42J Cell Membranes (GRP receptors); Cheng method; unit inferred
Chain of GRP receptor (P52500 whole entry): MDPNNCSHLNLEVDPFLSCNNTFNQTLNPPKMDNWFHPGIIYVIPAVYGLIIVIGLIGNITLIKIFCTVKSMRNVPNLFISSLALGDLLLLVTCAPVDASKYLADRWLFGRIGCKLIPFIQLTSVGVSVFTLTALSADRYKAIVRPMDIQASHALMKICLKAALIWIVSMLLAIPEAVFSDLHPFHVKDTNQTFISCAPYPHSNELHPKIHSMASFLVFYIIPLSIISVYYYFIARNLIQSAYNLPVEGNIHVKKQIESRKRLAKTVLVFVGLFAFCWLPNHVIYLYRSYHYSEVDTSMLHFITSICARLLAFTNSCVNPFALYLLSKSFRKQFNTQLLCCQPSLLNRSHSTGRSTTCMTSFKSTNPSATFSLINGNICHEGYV

[4] = molecular target: T2, NMB receptor (Rattus norvegicus, UniProt P24053); test: [3H]inositol phosphates in NMB-R transfected cells (alone or NMB-stimulated); assay type: cell-based; design: a full length NMB-preferring bombesin receptor clone generated from rat esophagus; expressed in transfected cells; details: NMB-R transfected cells; for IC50 / effect at 10 μM on NMB-stimulated increase in [3H]IP: 3 nM NMB; for [3H]IP, analog Alone (10 μM): analog 10 μM alone, control 13 ± 3; for [3H]IP, analog Plus NMB (3 nM): analog 10 μM plus NMB 3 nM, NMB without analog 186 ± 58
T2 sequence (P24053 1-390): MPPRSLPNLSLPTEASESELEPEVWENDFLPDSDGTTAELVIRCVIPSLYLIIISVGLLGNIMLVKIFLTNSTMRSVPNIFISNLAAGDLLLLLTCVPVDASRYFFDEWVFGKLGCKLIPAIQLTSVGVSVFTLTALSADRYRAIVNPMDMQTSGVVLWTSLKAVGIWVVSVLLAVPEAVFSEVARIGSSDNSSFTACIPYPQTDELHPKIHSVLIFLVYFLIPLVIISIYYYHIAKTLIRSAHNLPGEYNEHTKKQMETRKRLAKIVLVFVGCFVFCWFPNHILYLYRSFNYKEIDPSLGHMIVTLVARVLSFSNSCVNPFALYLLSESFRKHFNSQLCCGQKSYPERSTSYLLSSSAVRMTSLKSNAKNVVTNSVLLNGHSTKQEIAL
How it was run: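 BALB 3T3 cells stably expressing rat NMB receptor, labelled 48 h at 37 °C with 100 μCi/ml myo-[3H]inositol, preincubated 15 min in buffer with 10 mM LiCl, then exposed 60 min at 37 °C to agonists or to 3 nM NMB plus antagonists. Total [3H]inositol phosphates isolated by anion-exchange chromatography.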

[5] = molecular target: T2, NMB receptor; test: NMB membrane receptor assay, 125I-NMB, rat olfactory bulb membranes; assay type: binding; design: Membranes were prepared from rat olfactory bulb (NMB membrane receptor assay); from tissue; host or cells: rat olfactory bulb membranes; details: for Ki: Cheng method, unit inferred, read-out: affinity, 125I-NMB, Rat Olfactory bulb membranes (neuromedin B receptors)
[6] = molecular target: T3, delta opioid receptor (Rattus norvegicus, UniProt P33533); test: Delta opioid membrane assay, rat forebrain; assay type: binding; details: 1 μM
T3 construct: rat forebrain (TRH, mu and delta opioid membrane assays); from tissue; host or cells: rat forebrain membranes
T3 sequence (P33533 whole entry): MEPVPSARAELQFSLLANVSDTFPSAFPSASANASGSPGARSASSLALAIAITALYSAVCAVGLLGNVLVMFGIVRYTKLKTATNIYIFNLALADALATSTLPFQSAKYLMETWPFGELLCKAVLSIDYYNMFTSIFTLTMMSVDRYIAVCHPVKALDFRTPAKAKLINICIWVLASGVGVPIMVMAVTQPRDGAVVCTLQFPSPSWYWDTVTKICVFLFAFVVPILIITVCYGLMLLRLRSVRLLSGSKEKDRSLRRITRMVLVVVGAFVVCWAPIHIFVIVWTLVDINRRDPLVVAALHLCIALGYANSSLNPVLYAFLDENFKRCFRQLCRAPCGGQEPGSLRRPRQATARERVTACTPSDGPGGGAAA

[7] = tested on: endothelin-1-stimulated increases in [3H]IP; test: Endothelin-1-stimulated [3H]IP in C-6 glioblastoma cells; assay type: cell-based, rat
Experimental: (§1) Total phosphoinositides in C-6 cells and in NMB-R transfected cells were determined as described previously, with minor modifications [Benya, R. V. et al. Mol. Pharmacol. 42:1058 (1992); and Wang, L-H. et al. Biochem. Jo 286:641 (1992)]. Cells were grown to confluence in 24-well plates and then loaded with 100 μCi/ml myo-[2-^3 H]inositol in Dulbecco's modified essential medium with 2% fetal bovine serum at 37° C. for 48 hrs. Cells were washed and incubated in phosphoinositide buffer (standard buffer additionally containing 10 mM LiCl, 20 mM HEPES, 2 mM CaCl2, 2% BSA, and 1.2 mM MgSO4) for 15 min and then for 60 min at 37° C. with agonists at various concentrations or with 3 nM NMB (a half-maximal effective concentration) and possible antagonists at different concentrations. Reactions were halted using ice-cold 1% HCl in methanol, and the inositol phosphates (IP) were isolated as described previously [Bologna, M. et al. Cancer 63:1714 (1989); and Endo, T. et al. J. Endocrinolo 131:313 (1991)]. Briefly, after loading of the anion exchange column, free [^3 H]glycerophosphorylinositol was removed by washing with 5 mM disodium tetraborate in 60 mM sodium formate. Total [^3 H]inositol phosphates were then eluted using 100 mM formic acid in 1.0M ammonium formate as described previously [Benya, R. V. et al. Mol. Pharmacol. 42:1058 (1992); and Wang, L-H. et al. Biochem. J. 286:641 (1992 )].
(§2) without SSoctapeptide analog added. C6 glioblastoma cells (50,000
(§3) cells/well) were incubated with myo[2^3 H]inositol for two days,
(§4) washed and then incubated with or without the indicated peptides for 60
(§5) minutes at 37° C. in phosphoinositide buffer containing 10 mM LiCl
(§6) as described in METHODS. [^3 H]IP was measured using Dowex AG1X8 anio

[8] = tested on: α1-adrenergic receptor; test: α1-adrenergic membrane receptor assay, rat cerebral cortex; assay type: binding; details: 1 μM
[9] = molecular target: T4, CCKB (Rattus norvegicus, UniProt P30553); test: CCKB membrane receptor assay, rat cerebral cortex; assay type: binding; details: 1 μM
T4 construct: rat cerebral cortex (CCKB, PYY, neurotensin,; from tissue; host or cells: rat cerebral cortex membranes
T4 sequence (P30553 whole entry): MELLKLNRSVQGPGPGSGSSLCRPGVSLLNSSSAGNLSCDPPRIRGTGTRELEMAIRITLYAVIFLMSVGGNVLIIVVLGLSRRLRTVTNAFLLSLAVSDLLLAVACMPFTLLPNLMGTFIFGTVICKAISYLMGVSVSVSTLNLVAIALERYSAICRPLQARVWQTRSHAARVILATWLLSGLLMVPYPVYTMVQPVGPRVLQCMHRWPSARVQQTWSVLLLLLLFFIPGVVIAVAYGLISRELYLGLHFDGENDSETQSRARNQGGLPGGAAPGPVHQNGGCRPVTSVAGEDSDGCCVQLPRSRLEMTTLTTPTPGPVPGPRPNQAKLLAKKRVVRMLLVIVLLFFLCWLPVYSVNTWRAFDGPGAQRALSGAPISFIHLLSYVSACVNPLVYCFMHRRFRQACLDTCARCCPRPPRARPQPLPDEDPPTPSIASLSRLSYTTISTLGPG

[10] = molecular target: T5, endothelinA (Rattus norvegicus, UniProt P26684); test: EtA membrane receptor assay, A10 smooth muscle cells; assay type: binding; details: 1 μM
T5 construct: A10 smooth muscle cells (EtA membrane receptor assay); endogenous in cells; host or cells: A10 smooth muscle cells (membranes)
T5 sequence (P26684 21-426): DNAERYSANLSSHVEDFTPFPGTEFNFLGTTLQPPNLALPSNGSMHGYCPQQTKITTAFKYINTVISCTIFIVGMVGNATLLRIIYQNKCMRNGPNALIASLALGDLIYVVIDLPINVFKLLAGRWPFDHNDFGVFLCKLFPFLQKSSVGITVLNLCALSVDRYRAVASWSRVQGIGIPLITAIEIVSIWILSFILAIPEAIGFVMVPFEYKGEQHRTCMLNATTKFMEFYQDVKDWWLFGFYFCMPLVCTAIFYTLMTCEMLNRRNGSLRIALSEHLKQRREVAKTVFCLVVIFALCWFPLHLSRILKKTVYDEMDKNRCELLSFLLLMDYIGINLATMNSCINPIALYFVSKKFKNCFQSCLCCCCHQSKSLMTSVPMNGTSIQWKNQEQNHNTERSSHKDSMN

[11] = molecular target: T6, histamine H1 receptor (Cavia porcellus, UniProt P31389); test: Histamine H1 membrane receptor assay, guinea pig cerebral; assay type: binding; details: 1 μM
T6 construct: guinea pig cerebral (N1, histamine H1, and sigma opioid membrane receptor assays); from tissue; host or cells: guinea pig cerebral membranes
T6 sequence (P31389 whole entry): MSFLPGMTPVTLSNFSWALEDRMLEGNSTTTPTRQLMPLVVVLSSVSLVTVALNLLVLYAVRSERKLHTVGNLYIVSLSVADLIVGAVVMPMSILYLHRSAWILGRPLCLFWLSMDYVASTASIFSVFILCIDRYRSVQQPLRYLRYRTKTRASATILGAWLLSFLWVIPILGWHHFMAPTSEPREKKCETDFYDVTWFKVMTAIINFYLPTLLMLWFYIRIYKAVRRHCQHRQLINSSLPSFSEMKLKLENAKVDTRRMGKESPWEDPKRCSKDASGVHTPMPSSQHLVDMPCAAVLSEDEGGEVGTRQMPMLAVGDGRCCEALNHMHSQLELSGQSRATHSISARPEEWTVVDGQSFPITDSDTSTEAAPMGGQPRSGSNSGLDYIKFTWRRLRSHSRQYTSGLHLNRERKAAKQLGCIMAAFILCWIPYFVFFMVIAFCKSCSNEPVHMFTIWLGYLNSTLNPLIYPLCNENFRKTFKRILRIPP

[12] = molecular target: T2, NMB receptor; test: [3H]IP in C-6 glioblastoma cells (alone or NMB-stimulated); assay type: cell-based; design: a full length NMB-preferring bombesin receptor clone generated from rat esophagus; expressed in transfected cells
Experimental: as §1, §2, §3, §4, §5, §6

[13] = molecular target: T7, sigma opioid receptor (Cavia porcellus, UniProt Q60492); test: Sigma opioid membrane receptor assay, guinea pig cerebral; assay type: binding; details: 1 μM
T7 construct: guinea pig cerebral (N1, histamine H1, and sigma opioid membrane receptor assays); from tissue; host or cells: guinea pig cerebral membranes
T7 sequence (Q60492 whole entry): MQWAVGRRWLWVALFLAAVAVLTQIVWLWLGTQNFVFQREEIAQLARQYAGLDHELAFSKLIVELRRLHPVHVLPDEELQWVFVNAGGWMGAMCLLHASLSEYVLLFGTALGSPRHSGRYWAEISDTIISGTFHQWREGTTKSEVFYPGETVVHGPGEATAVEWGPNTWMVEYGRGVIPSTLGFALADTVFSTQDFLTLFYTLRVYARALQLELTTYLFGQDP

[14] = Cheng method, unit inferred, read-out: affinity, [3H]DAGO, Rat Forebrain membranes (mu opioid receptors)
[15] = read-out: IC50 NMB-stimulated [3H]IP, NMB Receptor, Transfected Cells
[16] = read-out: IC50 NMB-stimulated [3H]IP, Transfected Cells (values in μM)

Structure (SMILES)	Ki [1, 14] [nM]	fold greater affinity for NMB than GRP receptors [2] [fold]	Ki [3] [nM]	IC50 [4, 15] [µM]	IC50 [4, 16] [µM]	effect at 10 μM on NMB-stimulated increase in [3H]IP [4]	[3H]IP, analog Alone (10 μM) [4] [dym × 10^3]	[3H]IP, analog Plus NMB (3 nM) [4] [dym × 10^3]	Ki [5] [nM]	further results
NCCCC[C@@H]1NC(=O)[C@@H](Cc2c[nH]c3ccccc23)NC(=O)[C@H](Cc2ccc(O)cc2)NC(=O)[C@@H](NC(=O)[C@H](N)Cc2ccc3ccccc3c2)CSSC[C@@H](C(=O)N[C@@H](Cc2ccc3ccccc3c2)C(N)=O)NC(=O)[C@H](Cc2ccccc2)NC1=O [Analog #13, H2 -D-Nal-Cys-Tyr-D-Trp-Lys-Phe-Cys-Nal-NH2] (H-[d2Nal]CY[dW]KFC[2Nal]-NH2; disulfide 2-7)	1640	> 100	2150 ± 200	1.17 ± 0.114	1.2 to 1.8	completely inhibited	10 ± 1	9 ± 4	270 ± 90	–
CC(C)[C@@H]1NC(=O)[C@H](CCCCN)NC(=O)[C@@H](Cc2ccc3ccccc3c2)NC(=O)[C@H](Cc2ccc(O)cc2)NC(=O)[C@@H](NC(=O)[C@H](N)Cc2ccc3ccccc3c2)CSSC[C@@H](C(=O)N[C@@H](Cc2ccc3ccccc3c2)C(N)=O)NC1=O [Analog #17, H2 -D-Nal-Cys-Tyr-D-Nal-Lys-Val-Cys-Nal-NH2] (H-[d2Nal]CY[d2Nal]KVC[2Nal]-NH2; disulfide 2-7)	1570	> 100	3710 ± 200	1.78 ± 0.295	1.2 to 1.8	completely inhibited	12 ± 4	15 ± 2	850 ± 300	–
CC(C)[C@@H]1NC(=O)[C@H](CCCCN)NC(=O)[C@@H](Cc2c[nH]c3ccccc23)NC(=O)[C@H](Cc2ccc(O)cc2)NC(=O)[C@@H](NC(=O)[C@H](N)Cc2ccc3ccccc3c2)CSSC[C@@H](C(=O)N[C@@H](Cc2ccc3ccccc3c2)C(N)=O)NC1=O [Analog #1, H2 -D-Nal-Cys-Tyr-D-Trp-Lys-Val-Cys-Nal-NH2] (H-[d2Nal]CY[dW]KVC[2Nal]-NH2; disulfide 2-7)	–	84	2870 ± 520	0.895 ± 0.098	–	completely inhibited	12 ± 2	8 ± 4	43 ± 9	inhibition of binding to delta opioid receptors [6]: did not inhibit binding; [3H]IP with ET-1 (0.1 nM) ([7]; analog 10 μM, ET-1 alone 11.0 ± 2.1): 10.9 ± 1.8 dpm × 10^3; effect on endothelin-1-stimulated increases in [3H]IP in C-6 cells ([7]; listed as Cycle SS-octa): did not inhibit; effect on endothelin-1-stimulated increases in [3H]IP in C-6 cells ([7]; listed as cyclo SS octa): no effect; inhibition of binding to α1-adrenergic receptors [8]: did not inhibit binding; inhibition of binding to CCKB receptors [9]: did not inhibit binding; Ki ([1]; rat forebrain membranes, read-out: affinity, inhibition of [3H]DAGO binding to mu opioid receptors): 430 ± 130 nM; inhibition of binding to endothelinA receptors [10]: did not inhibit binding; fold greater affinity for NMB than GRP receptors ([2]; listed as cyclo SS-octa): 100 fold; concentration causing detectible inhibition of NMB-stimulated [3H]IP [4]: 0.3 µM; slope of Schild regression ([4]; not significantly different from unity): 1.1(+0.2); inhibition of binding to histamine H1 receptors [11]: did not inhibit binding; effect on NMB-stimulated increases in [3H]IP in C-6 cells [12]: inhibited; [3H]IP, no peptide added ([12]; analog 10 μM, 60 min 37° C., control 7.2 ± 1.0): 7.4 ± 1.3 dpm × 10^3; [3H]IP with NMB (10 nM) ([12]; analog 10 μM, NMB alone 21.0 ± 1.8): 7.5 ± 1.0 dpm × 10^3; fold greater affinity for NMB receptors than mu opioid receptors ([5]; membranes, Table 4): 10 fold; inhibition of binding to sigma opioid receptors [13]: did not inhibit binding
